Experimental data reported in ChEMBL document CHEMBL4020831, “Discovery of GDC-0853: A Potent, Selective, and Noncovalent Bruton's Tyrosine Kinase Inhibitor in Early Clinical Development” (J Med Chem, 2018).

Tests used:
ERBB2 = ERBB2 (Homo sapiens, UniProt P04626); assay: Inhibition of recombinant human cytoplasmic His-tagged ERBB2 expressed in baculovirus at 1 uM by Z'-LYTE assay
[1] = Oral bioavailability in rat at 1 mg/kg administered as single dose via cassette dosing; format: ADME, organism-based; details: in vivo
Cav1.2 [2] = target: T1, Cav1.2 (Homo sapiens, UniProt Q13936); assay: Inhibition of human Cav1.2 expressed in CHO cells at 1 uM incubated for 3 to 5 mins by Qpatch clamp assay; format: cell-based; details: CHO cells expressing human Cav1.2
T1 sequence (Q13936 whole entry): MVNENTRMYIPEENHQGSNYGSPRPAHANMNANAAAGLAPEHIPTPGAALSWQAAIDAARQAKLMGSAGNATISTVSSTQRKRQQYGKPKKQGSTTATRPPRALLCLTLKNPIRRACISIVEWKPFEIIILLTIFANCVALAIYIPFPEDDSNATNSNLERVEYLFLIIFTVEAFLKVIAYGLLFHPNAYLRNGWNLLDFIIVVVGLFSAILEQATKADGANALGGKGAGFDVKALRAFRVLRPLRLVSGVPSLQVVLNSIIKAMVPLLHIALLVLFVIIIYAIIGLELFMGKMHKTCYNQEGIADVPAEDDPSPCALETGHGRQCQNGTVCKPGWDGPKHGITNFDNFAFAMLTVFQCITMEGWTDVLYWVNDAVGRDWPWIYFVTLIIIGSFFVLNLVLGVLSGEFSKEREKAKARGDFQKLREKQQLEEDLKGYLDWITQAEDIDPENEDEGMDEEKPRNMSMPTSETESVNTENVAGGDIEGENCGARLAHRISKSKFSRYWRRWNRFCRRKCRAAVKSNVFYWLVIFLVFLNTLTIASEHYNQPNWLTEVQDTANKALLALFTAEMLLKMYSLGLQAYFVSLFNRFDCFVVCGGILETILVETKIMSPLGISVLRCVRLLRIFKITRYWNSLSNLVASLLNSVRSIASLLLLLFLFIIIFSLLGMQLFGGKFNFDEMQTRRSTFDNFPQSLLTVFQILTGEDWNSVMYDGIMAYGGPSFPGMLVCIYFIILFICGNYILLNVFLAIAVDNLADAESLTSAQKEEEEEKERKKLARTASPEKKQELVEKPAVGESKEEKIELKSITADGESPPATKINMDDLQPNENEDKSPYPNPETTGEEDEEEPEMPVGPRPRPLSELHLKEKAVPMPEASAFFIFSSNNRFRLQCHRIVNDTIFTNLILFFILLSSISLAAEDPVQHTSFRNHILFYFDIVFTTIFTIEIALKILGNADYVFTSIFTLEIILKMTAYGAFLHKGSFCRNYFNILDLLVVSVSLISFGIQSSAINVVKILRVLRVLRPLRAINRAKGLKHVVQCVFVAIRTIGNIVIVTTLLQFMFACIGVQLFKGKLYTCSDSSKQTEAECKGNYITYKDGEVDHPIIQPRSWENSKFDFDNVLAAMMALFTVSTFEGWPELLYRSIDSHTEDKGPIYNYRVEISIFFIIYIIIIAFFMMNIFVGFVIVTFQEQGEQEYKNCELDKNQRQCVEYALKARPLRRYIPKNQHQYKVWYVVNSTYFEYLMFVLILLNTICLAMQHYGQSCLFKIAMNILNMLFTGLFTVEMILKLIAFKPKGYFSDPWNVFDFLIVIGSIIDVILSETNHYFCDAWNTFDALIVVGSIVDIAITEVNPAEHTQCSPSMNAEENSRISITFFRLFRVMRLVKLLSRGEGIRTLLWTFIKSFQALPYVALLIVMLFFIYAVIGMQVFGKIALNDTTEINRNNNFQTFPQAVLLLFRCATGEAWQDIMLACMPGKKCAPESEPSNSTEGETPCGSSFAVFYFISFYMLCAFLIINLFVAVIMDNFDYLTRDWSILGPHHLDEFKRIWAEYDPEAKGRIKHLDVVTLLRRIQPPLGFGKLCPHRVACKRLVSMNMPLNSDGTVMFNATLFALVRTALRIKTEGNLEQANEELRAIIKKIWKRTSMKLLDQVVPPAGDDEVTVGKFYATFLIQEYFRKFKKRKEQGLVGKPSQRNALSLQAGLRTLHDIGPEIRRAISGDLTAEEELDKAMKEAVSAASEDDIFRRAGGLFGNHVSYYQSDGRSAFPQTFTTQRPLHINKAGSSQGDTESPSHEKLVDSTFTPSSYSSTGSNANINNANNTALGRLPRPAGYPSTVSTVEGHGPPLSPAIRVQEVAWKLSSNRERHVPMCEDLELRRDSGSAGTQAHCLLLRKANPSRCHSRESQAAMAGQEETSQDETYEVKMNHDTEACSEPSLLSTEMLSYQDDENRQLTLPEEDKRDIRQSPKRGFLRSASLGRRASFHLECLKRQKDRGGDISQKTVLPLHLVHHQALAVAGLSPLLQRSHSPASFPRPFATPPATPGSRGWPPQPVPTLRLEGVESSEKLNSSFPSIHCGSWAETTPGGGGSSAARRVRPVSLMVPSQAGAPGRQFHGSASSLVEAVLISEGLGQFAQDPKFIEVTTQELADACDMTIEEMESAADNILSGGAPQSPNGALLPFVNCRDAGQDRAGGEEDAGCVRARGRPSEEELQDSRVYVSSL

Cav1.2 [3] = target: T1, Cav1.2; assay: Inhibition of human Cav1.2 expressed in CHO cells at 10 uM incubated for 3 to 5 mins by Qpatch clamp assay; format: cell-based; details: CHO cells expressing human Cav1.2
Salmonella typhimurium [4] = assay: Genotoxicity in Salmonella typhimurium TA1535 after 48 to 72 hrs in presence of liver S9 fraction by Ames test; format: toxicity; details: salmonella enterica subsp. enterica serovar typhimurium
Salmonella typhimurium [5] = assay: Genotoxicity in Salmonella typhimurium TA1535 after 48 to 72 hrs in absence of liver S9 fraction by Ames test; format: toxicity; details: salmonella enterica subsp. enterica serovar typhimurium
Salmonella typhimurium [6] = assay: Genotoxicity in Salmonella typhimurium TA97a after 48 to 72 hrs in absence of liver S9 fraction by Ames test; format: toxicity; details: salmonella enterica subsp. enterica serovar typhimurium
Escherichia coli = assay: Genotoxicity in Escherichia coli WP2 harboring uvrA deletion mutant after 48 to 72 hrs in absence of liver S9 fraction by Ames test; format: toxicity
LTK = LTK (Homo sapiens, UniProt P29376); assay: Inhibition of recombinant human cytoplasmic GST-tagged LTK expressed in baculovirus at 1 uM by Z'-LYTE assay
Chain of LTK (P29376 whole entry): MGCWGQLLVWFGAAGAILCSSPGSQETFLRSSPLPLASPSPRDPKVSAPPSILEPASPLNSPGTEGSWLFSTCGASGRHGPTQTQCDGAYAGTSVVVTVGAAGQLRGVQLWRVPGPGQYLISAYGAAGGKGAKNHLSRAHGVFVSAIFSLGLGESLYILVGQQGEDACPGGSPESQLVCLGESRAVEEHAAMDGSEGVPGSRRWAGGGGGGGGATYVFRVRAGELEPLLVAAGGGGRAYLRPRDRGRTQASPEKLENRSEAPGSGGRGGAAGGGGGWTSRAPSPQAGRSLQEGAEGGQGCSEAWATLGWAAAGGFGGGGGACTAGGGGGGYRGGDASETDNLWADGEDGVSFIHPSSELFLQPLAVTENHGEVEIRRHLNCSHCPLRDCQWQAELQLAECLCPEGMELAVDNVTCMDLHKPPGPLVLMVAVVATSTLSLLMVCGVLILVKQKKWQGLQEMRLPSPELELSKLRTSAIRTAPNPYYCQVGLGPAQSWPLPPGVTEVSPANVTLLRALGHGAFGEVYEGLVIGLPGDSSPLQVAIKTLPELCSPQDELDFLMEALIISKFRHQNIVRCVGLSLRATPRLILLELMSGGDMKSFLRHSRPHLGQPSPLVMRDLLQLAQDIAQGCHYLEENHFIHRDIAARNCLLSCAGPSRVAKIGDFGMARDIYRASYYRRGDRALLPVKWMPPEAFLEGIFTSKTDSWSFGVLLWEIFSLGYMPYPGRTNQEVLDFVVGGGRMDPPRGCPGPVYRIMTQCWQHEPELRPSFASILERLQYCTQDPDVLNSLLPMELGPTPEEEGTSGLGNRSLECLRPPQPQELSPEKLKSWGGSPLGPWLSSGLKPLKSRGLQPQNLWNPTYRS

Rattus norvegicus [7] = assay: Antiinflammatory activity in Lewis rat collagen-induced arthritis model assessed as reduction in ankle diameter AUC at 16 mg/kg, po administered qd for 16 days relative to control; format: functional; details: 384 h
Rattus norvegicus [8] = assay: Antiinflammatory activity in Lewis rat collagen-induced arthritis model assessed as reduction in ankle diameter AUC at 4 mg/kg, po administered qd for 16 days relative to control; format: functional; details: 384 h
Rattus norvegicus [9] = assay: Antiinflammatory activity in Lewis rat collagen-induced arthritis model assessed as reduction in ankle diameter AUC at 0.5 mg/kg, po administered bid for 16 days relative to control; format: functional; details: 384 h
Rattus norvegicus [10] = assay: Time at which plasma concentration stays above in vitro IC70 for BTK autophosphorylation at Y223 in rat whole blood in Lewis rat collagen-induced arthritis model at 0.125 to 2 mg/kg, po bid measured during 12 hrs dosing
physchem = details: buffer, pH 7.4

Chain of ERBB2 (P04626 whole entry): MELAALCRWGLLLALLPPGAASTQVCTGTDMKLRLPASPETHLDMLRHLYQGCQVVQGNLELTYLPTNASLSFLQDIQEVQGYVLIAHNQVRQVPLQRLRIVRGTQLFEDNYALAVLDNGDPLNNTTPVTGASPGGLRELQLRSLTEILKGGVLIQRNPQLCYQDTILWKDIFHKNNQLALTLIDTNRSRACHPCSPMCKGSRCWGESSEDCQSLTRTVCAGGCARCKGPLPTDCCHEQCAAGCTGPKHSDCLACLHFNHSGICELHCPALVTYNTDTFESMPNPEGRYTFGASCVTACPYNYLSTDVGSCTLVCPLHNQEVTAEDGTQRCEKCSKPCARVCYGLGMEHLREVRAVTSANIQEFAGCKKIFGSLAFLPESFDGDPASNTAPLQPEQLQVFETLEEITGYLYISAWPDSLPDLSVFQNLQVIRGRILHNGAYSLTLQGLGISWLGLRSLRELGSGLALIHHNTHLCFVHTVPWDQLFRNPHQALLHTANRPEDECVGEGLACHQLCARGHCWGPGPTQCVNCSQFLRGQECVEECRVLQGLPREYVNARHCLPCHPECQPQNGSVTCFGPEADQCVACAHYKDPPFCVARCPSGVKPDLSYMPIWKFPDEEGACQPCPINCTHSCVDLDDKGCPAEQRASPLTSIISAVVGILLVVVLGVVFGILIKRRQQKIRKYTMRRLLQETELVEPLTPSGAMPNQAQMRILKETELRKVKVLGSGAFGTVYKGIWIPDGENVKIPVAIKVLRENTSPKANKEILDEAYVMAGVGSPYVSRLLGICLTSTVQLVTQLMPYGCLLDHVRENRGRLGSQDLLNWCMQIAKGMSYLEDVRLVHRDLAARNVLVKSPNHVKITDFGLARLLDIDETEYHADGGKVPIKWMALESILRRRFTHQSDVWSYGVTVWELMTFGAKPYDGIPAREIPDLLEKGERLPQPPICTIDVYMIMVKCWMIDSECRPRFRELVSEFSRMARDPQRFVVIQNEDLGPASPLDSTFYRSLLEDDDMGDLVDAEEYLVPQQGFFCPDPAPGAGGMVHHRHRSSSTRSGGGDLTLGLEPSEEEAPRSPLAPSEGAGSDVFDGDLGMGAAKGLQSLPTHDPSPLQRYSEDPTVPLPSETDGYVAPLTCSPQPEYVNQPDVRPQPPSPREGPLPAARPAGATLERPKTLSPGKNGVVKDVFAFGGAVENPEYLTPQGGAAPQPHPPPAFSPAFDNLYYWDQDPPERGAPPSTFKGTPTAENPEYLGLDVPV

## C[C@H]1CN(C2COC2)CCN1c1ccc(Nc2cc(-c3ccnc(N4CCn5c(cc6c5CC(C)(C)C6)C4=O)c3CO)cn(C)c2=O)nc1 [FENEBRUTINIB]
ERBB2
  inhibition at 1 µM: -1%
[1]
  bioavailability: 65.1%
Cav1.2 [2]
  inhibition at 1 µM: 1.5%
Cav1.2 [3]
  inhibition at 10 µM: 3.8%
Salmonella typhimurium [4]
  Activity: Non-Toxic
Salmonella typhimurium [5]
  Activity: Non-Toxic
Salmonella typhimurium [6]
  Activity: Non-Toxic
Escherichia coli
  Activity: Non-Toxic
LTK
  inhibition at 1 µM: -1%
Rattus norvegicus [7]
  inhibition in vivo at 16 mg/kg: 99%
Rattus norvegicus [8]
  inhibition in vivo at 4 mg/kg: 89%
Rattus norvegicus [9]
  inhibition in vivo at 0.5 mg/kg: 79%
Rattus norvegicus [10]
  Time: 6 h
physchem
  logD: 1.6
